Assay results: patent US7094801B2, “Chalcone derivatives and their use to treat diseases” (Atherogenics, Inc., priority 2001, dated 2006)
pIC50: −log10 of the molar value.

Legend:
VCAM-1 = assay: In Vitro VCAM-1 Assay (TNF-α stimulated HAEC or HPAEC, cell ELISA); type: cell-based, human; settings: Homo sapiens, 16 h, TNF-α (1 ng/ml) stimulated HAEC or HPAEC, approximately 16 hours
In short: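 Primary human aortic or pulmonary endothelial cells (below passage 9) stimulated with TNF-α (1 ng/ml) plus compound (four concentrations, ≤0.25% DMSO) for about 16 h. Surface VCAM-1 detected by cell ELISA (HRP/TMB, OD 450 nm). IC50 taken as the concentration giving 50% inhibition of the TNF-α-only response.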

Balb/C mice = assay: Asthma Protocol (ovalbumin sensitized and challenged mice, bronchoaveolar lavage); type: in vivo, mouse; settings: sc, daily dosing at 100 mg/kg from day 0–13, lavage fluid
Description: Balb/C mice (6–8 weeks old) are sensitized to ovalbumin (ova) (8 ug ova absorbed in 3.3 mg Alum inject) on days 0 and 5. On day 12, the mice were aerosol challenged with 0.5% ovalbumin dissolved in sterile saline for 1 hr in the AM, and then again in the PM (at least 4 hr apart). On day 14, the mice were anesthetized with ketamine/xylazine/acepromazine cocktail, exsanguinated, and then euthanized. Following blood collection, bronchoaveolar lavage was performed on each animal. Total cell counts were conducted on the lavage fluid, which was subsequently diluted with cell media 1:1. Slides of the lavage fluid were made by spinning the samples with a cytospin centrifuge. Slides were airdried and stained with x. Cell differentials of the lavage fluid were completed at the conclusion of the study. All compounds except Example 2 were well tolerated with no body weight loss throughout the course of the study. Statistical analysis involved ANOVA and Tukey-Kramer post hoc tests. Compounds were administered except where noted by subcutaneous injection once daily from day 0–13. The formulations used contained various mixtures of the following excipients (pharmasolve, cremophor RH 40, tween 80, PEG 300). See Biological Table 3

Row | SMILES | pIC50 (VCAM-1) | melting point | % Inhibition (Balb/C mice)
1 | COc1cc(O)c(-c2cccs2)cc1/C=C/C(=O)c1ccc(C(=O)O)cc1 [Example 54, 4-[3E-(4-Hydroxy-2-methoxy-5-thiophen-2-yl-phenyl)-acryloyl]-benzoic acid] | > 5.00 | 243 °C (dec.) | 
2 | COc1cc(OC)c(-c2c[nH]c(C3CC3)n2)cc1/C=C/C(=O)c1ccc(S(N)(=O)=O)cc1 [Example 111, 4-{3E-[5-(2-Cyclopropyl-1H-imidazol-4-yl)-2,4-dimethoxy-phenyl]-acryloyl}-benzenesulfonamide] | < 5.00 | 156 to 160 °C | 
3 | COc1cc(OCC(CO)CO)c(-c2cccs2)cc1/C=C/C(=O)c1ccc(S(N)(=O)=O)cc1 [Example 106, 4-{3E-[4-(3-Hydroxy-2-hydroxymethyl-propoxy)-2-methoxy-5-thiophen-2-yl-phenyl]-acryloyl}-benzenesulfonamide] | > 5.00 | 191 to 192 °C | 
4 | COc1ccc(/C=C/C(=O)c2ccc(C(=O)O)cc2)c(-c2cccs2)c1 [Example 34, 4-[3E-(4-Methoxy-2-thiophen-2-yl-phenyl)-acryloyl]-benzoic acid] | < 5.00 | 209 to 211 °C | 
5 | O=C(O)c1ccc(C(=O)/C=C/c2ccc(N3CCCC3)c(-c3cccs3)c2)cc1 [Example 20, 4-[3E-(4-Pyrrolidin-1-yl-3-thiophen-2-yl-phenyl)-acryloyl]-benzoic acid] | < 5.00 | 212 to 214 °C (dec.) | 
6 | COc1cc(OC)c(-c2cc3ccccc3s2)cc1/C=C/C(=O)c1ccc(Nc2c(N)c(=O)c2=O)cc1 [Example 102, 3-Amino-4-{4-[3E-(5-benzo[b]thiophen-2-yl-2,4-dimethoxy-phenyl)-acryloyl]-phenylamino}-cyclobut-3-ene-1,2-dione] | < 5.00 | > 260 °C | 
7 | COc1cc(OC)c(-c2cccs2)cc1/C=C/C(=O)c1ccc(-c2nn[nH]n2)cc1 [Example 78, 3E-(2,4-Dimethoxy-5-thiophen-2-yl-phenyl)-1-[4-(2H-tetrazol-5-yl)-phenyl]-propenone] | > 5.00 | 235 °C (dec.) | 
8 | COc1cc(OC)c(-c2cc3ccccc3s2)cc1/C=C/C(=O)c1ccc(C(C)=O)cc1 [Example 108, 1-(4-Acetyl-phenyl)-3E-(5-benzo[b]thiophen-2-yl-2,4-dimethoxy-phenyl)-propenone] | > 5.00 | 165 to 167 °C | 
9 | COc1ncc(-c2cc(/C=C/C(=O)c3ccc(C(=O)O)cc3)c(OC)cc2OC)c(OC)n1 [Example 38, 4-{3E-[5-(2,4-Dimethoxy-pyrimidin-5-yl)-2,4-dimethoxy-phenyl]-acryloyl}-benzoic acid] | > 5.00 | 203 to 205 °C | 
10 | COCCOCCOCCOc1cc(OC)c(-c2cccs2)cc1/C=C/C(=O)c1ccc(C(=O)O)cc1 [Example 68, 4-[3E-(4-Methoxy-2-{2-[2-(2-methoxy-ethoxy)-ethoxy]-ethoxy}-5-thiophen-2-yl-phenyl)-acryloyl]-benzoic acid] | > 5.30 | 137 to 138 °C | 
11 | COc1cc(OC)c(-c2cccs2)cc1/C=C/C(=O)c1ccccc1C(=O)O [Example 35, 2-[3E-(2,4-Dimethoxy-5-thiophen-2-yl-phenyl)-acryloyl]-benzoic acid] | < 5.00 | 196 to 198 °C | 
12 | COc1cc(OC)c(-c2csc(C)n2)cc1/C=C/C(=O)c1ccc(C(=O)O)cc1 [Example 69, 4-{3E-[2,4-Dimethoxy-5-(2-methyl-thiazol-4-yl)-phenyl]-acryloyl}-benzoic acid] | > 5.30 | 201 to 202 °C (dec.) | 
13 | COc1cc(OCc2ccccn2)c(/C=C/C(=O)c2ccc(S(N)(=O)=O)cc2)cc1-c1cccs1 [Example 114, 4-{3E-[4-Methoxy-2-(pyridin-2-ylmethoxy)-5-thiophen-2-yl-phenyl]-acryloyl}-benzenesulfonamide] | > 5.30 | 188 to 189 °C | 
14 | COc1cc(OC)c(/C=C/C(=O)c2ccc(C(=O)O)cc2)c(-c2cccs2)c1 [Example 39, 4-[3E-(2,4-Dimethoxy-6-thiophen-2-yl-phenyl)-acryloyl]-benzoic acid] | < 5.00 | 231 °C (dec.) | 
15 | COc1cc(OC)c(-c2nncn2CC(C)C)cc1/C=C/C(=O)c1ccc(C(=O)O)cc1 [Example 110, 4-{3E-[5-(4-Isobutyl-4H-[1,2,4]triazol-3-yl)-2,4-dimethoxy-phenyl]-acryloyl}-benzoic acid] | < 5.00 | > 240 °C (dec.) | 
16 | COc1cc(OC(C)(C)C(=O)O)c(-c2cccs2)cc1/C=C/C(=O)c1ccc(N(C)S(C)(=O)=O)cc1 [Example 101, 2-(4-{3-[4-(Methanesulfonyl-methyl-amino)-phenyl]-3-oxo-E-propenyl}-5-methoxy-2-thiophen-2-yl-phenoxy)-2-methyl-propionic acid] | < 5.00 | 197 to 200 °C | 

The next lines start with results.

Row | pIC50 (VCAM-1) | melting point | SMILES | % Inhibition (Balb/C mice)
17 | > 5.30 | 123 to 124 °C | COc1cc(OCC(CO)CO)c(/C=C/C(=O)c2ccc(S(N)(=O)=O)cc2)cc1-c1cccs1 [Example 86, 4-{3E-[2-(3-Hydroxy-2-hydroxymethyl-propoxy)-4-methoxy-5-thiophen-2-yl-phenyl]-acryloyl}-benzenesulfonamide] | 48%
18 | > 6.00 | 228 to 229 °C | COc1cc(OC)c(-c2cc3ccccc3s2)cc1/C=C/C(=O)c1ccc(C(=O)NC(C)=O)cc1 [Example 95, N-Acetyl-4-[3E-(5-benzo[b]thiophen-2-yl-2,4-dimethoxy-phenyl)-acryloyl]-benzamide] | 
19 | > 5.30 | 166 to 168 °C | O=C(/C=C/c1ccc(-c2cccs2)cc1)c1ccc2c(c1)OC(CO)(CO)O2 [Example 2, 1-(2,2-Bis-hydroxymethyl-benzo[1,3]dioxol-5-yl)-3E-(4-thiophen-2-yl-phenyl)-propenone] | 
20 | > 5.30 | 187 to 191 °C | COc1cc(OCC2CC2)c(/C=C/C(=O)c2ccc(C(=O)O)cc2)cc1-c1cccs1 [Example 32, 4-[3E-(2-Cyclopropylmethoxy-4-methoxy-5-thiophen-2-yl-phenyl)-acryloyl]-benzoic acid] | 
21 | > 5.30 | 235 to 237 °C (dec.) | COc1cc(OCc2nc3ccccc3[nH]2)c(/C=C/C(=O)c2ccc(S(N)(=O)=O)cc2)cc1-c1cccs1 [Example 113, 4-{3E-[2-(1H-Benzoimidazol-2-ylmethoxy)-4-methoxy-5-thiophen-2-yl-phenyl]-acryloyl}-benzenesulfonamide] | 
22 | > 6.00 | 237 °C (dec.) | COc1ccc(/C=C/C(=O)c2ccc(C(=O)O)cc2)c(OC)c1-c1cc2ccccc2s1 [Example 44, 4-[3E-(3-Benzo[b]thiophen-2-yl-2,4-dimethoxy-phenyl)-acryloyl]-benzoic acid] | 
23 | > 5.30 | > 260 °C | COc1cc(OC)c(-c2c(C)noc2C)cc1/C=C/C(=O)c1ccc(C(=O)O)cc1 [Example 33, 4-{3E-[5-(3,5-Dimethyl-isoxazol-4-yl)-2,4-dimethoxy-phenyl]-acryloyl}-benzoic acid] | 
24 | > 5.30 | 242 to 244 °C | O=C(O)c1ccc(C(=O)/C=C/c2ccc(F)c(-c3cccs3)c2)cc1 [Example 21, 4-[3E-{4-Fluoro-3-(thiophen-2-yl)-phenyl}-acryloyl]-benzoic acid] | 
25 | > 5.30 | 210 to 212 °C | CCOc1cc(OC)c(/C=C/C(=O)c2ccc(C(=O)O)cc2)cc1-c1cccs1 [Example 53, 4-[3E-(4-Ethoxy-2-methoxy-5-thiophen-2-yl-phenyl)-acryloyl]-benzoic acid] | 
26 | > 5.30 | 182 to 183 °C | COc1cc(OC)c(-c2cc3ccccc3n2C(=O)OC(C)(C)C)cc1/C=C/C(=O)c1ccc(C(=O)O)cc1 [Example 36, 2-{5-[3-(4-Carboxy-phenyl)-3-oxo-E-propenyl]-2,4-dimethoxy-phenyl}-indole-1-carboxylic acid tert-butyl ester] | 71%
27 | > 6.00 | 231 °C | COc1cc(/C=C/C(=O)c2ccc(C(=O)O)cc2)cc(-c2cccs2)c1OC [Example 8, 4-[3E-(3,4-Dimethoxy-5-thiophen-2-yl-phenyl)-acryloyl]-benzoic acid] | 
28 | > 6.00 | 234 to 236 °C | Cl.O=C(O)c1ccc(C(=O)/C=C/c2cc(-c3cccs3)ccc2OCCCN2CCOCC2)cc1 [Example 65, 4-{3E-[2-(3-Morpholin-4yl-propoxy)-5-thiophen-2-yl-phenyl]-acryloyl}-benzoic acid, hydrochloride] | 
29 | > 6.00 | 193 to 196 °C | COc1cc(OCCCN2CCOCC2)c(/C=C/C(=O)c2ccc(S(N)(=O)=O)cc2)cc1-c1cccs1 [Example 85, 4-{3E-[4-Methoxy-2-(3-morpholin-4-yl-propoxy)-5-thiophen-2-yl-phenyl]-acryloyl}-benzenesulfonamide] | 
